Experimental data published in article PMC9895061 (Signal Transduction and Targeted Therapy, 2023).

Key:
[1] = target: T1, PRDX1 (Homo sapiens, UniProt Q06830); assay: Trx-TrxR-NADPH coupling peroxiredoxin activity assay, PRDX1; assay type: biochemical; conditions: recombinant PRDX1, 1.5 h incubation, mean ± SEM, triplicate; read-out: IC50 against the peroxidase activity of PRDX1
T1 sequence (Q06830 1-199): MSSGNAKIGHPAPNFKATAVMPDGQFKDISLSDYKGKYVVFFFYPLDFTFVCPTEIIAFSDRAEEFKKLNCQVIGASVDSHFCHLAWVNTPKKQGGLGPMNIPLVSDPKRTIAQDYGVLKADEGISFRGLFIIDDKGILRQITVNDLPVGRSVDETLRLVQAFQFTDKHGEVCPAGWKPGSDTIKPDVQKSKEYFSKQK

[2] = tested on: recombinant PRDX1; assay: Click labeling assay; assay type: binding, human; conditions: recombinant PRDX1, streptavidin HRP blot; competed by Celastrol
Method: The click labeling method used in this paper refers to these researches.[49],[50] Alkynylated compounds were incubated with recombinant proteins for 1 h in buffer C (20 mM Hepes, […]). For some PRDX1 wild type samples, unalkynylated compounds were pre-incubated with proteins for 0.5 h before incubating with alkynylated compounds. The work concentration of proteins is 1 µM. After compounds incubation, the protein samples were subjected to click reaction procedures through terminal alkynyl group as previously described.[49],[50] Protein samples were resolved with SDS-PAGE and blotted with streptavidin HRP (1:10000, Thermo Scientific) and anti-PRDX1 antibody (8499, 1:1000, Cell Signaling Technology).

Row | melting point [°C] | IC50 [1] [nM] | Structure (SMILES) | covalent binding to PRDX1 by click labeling (in words) [2]
1 | 151.9 to 155.7 | 280 ± 40 | COC(=O)[C@H](Cc1ccccc1)NC(=O)N[C@]1(C)CC[C@]2(C)CC[C@]3(C)C4=CC=C5C(=CC(=O)C(O)=C5C)[C@]4(C)CC[C@@]3(C)[C@@H]2C1 [19-266, Methyl (((2R,4aS,6aS,12bR,14aS,14bR)-10-hydroxy-2,4a,6a,9,12b,14a-hexamethyl-11-oxo-1,2,3,4,4a,5,6,6a,11,12b,13,14,14a,14b-tetradecahydropicen-2-yl)carbamoyl)-L-phenylalaninate] | 
2 | 123.4 to 127.8 |  | C#CCCOC(=O)[C@@H](C)NC(=O)N[C@]1(C)CC[C@]2(C)CC[C@]3(C)C4=CC=C5C(=CC(=O)C(O)=C5C)[C@]4(C)CC[C@@]3(C)[C@@H]2C1 | 

Row | Structure (SMILES) | melting point [°C] | IC50 [1] [nM] | covalent binding to PRDX1 by click labeling (in words) [2]
3 | C#CCOCCOCCNC(=O)[C@]1(C)CC[C@]2(C)CC[C@]3(C)C4=CC=C5C(=CC(=O)C(O)=C5C)[C@]4(C)CC[C@@]3(C)[C@@H]2C1 [alkynylated Celastrol, (2R,4aS,6aS,12bR,14aS,14bR)-10-hydroxy-2,4a,6a,9,12b,14a-hexamethyl-11-oxo-N-(2-(2-(prop-2-yn-1-yloxy)ethoxy)ethyl)-1,2,3,4,4a,5,6,6a,11,12b,13,14,14a,14b-tetradecahydropicene-2-carboxamide] | 64.7 to 68 |  | covalently bound to PRDX1
